From ChEMBL document CHEMBL1201862, “PubChem BioAssay data set” (2004)
Calls of active or inactive are those of the source.

Legend:
[1] = Luminescence Cell-Based Dose Response HTS to Identify Inhibitors of 5'UTR Stem-Loop Driven Prion Protein mRNA Translation in H4 Neuroglioblastoma Cells. [Related pubchem assays: 1827 (Project Summary), 1813 (Primary HTS)]; format: functional
[2] = target: T1, Hexokinase-1 (Homo sapiens, UniProt P19367); assay: hexokinase 1 activators, dose response, selectivity assay for HKDC1 activator project, biochemical (AID 504762); format: functional
T1 sequence (P19367 whole entry): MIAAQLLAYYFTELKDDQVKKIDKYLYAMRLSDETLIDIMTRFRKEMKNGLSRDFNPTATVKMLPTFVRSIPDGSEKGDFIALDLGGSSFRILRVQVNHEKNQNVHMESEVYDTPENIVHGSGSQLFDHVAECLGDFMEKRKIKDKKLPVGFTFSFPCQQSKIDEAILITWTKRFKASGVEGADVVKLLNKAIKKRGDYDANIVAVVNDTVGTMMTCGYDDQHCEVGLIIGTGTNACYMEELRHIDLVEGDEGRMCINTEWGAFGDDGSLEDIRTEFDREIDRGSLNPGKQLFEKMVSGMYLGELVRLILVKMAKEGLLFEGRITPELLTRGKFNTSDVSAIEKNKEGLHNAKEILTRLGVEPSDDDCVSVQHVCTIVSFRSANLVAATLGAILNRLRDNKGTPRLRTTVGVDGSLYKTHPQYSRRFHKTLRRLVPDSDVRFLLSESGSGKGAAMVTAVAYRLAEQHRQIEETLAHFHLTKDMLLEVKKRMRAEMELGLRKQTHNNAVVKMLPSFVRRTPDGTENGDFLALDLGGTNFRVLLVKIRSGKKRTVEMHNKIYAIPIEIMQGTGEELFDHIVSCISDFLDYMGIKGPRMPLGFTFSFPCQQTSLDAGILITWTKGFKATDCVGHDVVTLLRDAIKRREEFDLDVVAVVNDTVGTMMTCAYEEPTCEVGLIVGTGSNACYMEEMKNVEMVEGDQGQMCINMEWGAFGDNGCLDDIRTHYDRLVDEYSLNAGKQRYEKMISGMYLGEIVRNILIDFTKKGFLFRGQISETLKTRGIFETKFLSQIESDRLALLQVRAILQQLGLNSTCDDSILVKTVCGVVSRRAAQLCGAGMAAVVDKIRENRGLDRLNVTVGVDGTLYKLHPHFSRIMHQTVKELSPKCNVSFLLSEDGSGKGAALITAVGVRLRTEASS

[3] = inhibitors of firefly luciferase expression or activity, dose response, H4 neuroglioma cells, luminescence (AID 1990); format: functional, cell-based
[4] = inhibitors of SNCA 5'UTR-driven reporter translation, confirmation, H4 neuroglioma cells, luminescence (AID 1988); format: functional, cell-based
[5] = target: T2, Hexokinase HKDC1 (Homo sapiens, UniProt Q2TB90); assay: HKDC1 hexokinase activators, dose response, biochemical, W721R variant (AID 504730); format: functional
T2 sequence (Q2TB90 whole entry): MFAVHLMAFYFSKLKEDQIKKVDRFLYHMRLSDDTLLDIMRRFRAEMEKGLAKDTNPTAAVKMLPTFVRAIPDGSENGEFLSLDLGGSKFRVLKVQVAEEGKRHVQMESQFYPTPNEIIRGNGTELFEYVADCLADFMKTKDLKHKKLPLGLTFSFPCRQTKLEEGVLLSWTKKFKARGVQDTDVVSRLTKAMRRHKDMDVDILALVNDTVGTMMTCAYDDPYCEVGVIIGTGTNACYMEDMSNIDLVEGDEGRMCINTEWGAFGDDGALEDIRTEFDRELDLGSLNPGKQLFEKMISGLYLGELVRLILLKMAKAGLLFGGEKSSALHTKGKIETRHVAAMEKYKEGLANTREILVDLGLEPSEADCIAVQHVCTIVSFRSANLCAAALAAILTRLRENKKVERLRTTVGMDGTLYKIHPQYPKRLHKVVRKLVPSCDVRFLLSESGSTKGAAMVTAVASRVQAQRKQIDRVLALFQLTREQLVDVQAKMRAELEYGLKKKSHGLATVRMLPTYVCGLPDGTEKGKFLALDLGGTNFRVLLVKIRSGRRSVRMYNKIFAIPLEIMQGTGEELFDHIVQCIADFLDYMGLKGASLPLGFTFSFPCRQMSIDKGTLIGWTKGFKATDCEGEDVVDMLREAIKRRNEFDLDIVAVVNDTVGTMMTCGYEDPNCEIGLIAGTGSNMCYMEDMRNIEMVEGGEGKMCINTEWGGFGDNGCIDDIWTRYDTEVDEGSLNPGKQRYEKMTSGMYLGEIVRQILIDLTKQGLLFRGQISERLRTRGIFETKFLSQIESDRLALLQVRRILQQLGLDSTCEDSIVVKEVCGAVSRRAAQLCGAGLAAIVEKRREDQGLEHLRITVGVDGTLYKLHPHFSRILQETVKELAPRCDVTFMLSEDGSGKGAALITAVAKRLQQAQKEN

[6] = Intein inhibitors as potential Tuberculosis drugs, a cytotoxicity screen. [Related pubchem assays (depositor defined):AID2221, AID2223, AID434968, AID435010, AID449749, AID449750, AID489010]; format: functional
[7] = target: T3, Replicative DNA helicase DnaB (Mycobacterium tuberculosis, UniProt P9WMR3); assay: DnaB intein splicing inhibitors, dose response, biochemical, cell-free fluorescence (AID 449749); format: functional
T3 sequence (P9WMR3 whole entry): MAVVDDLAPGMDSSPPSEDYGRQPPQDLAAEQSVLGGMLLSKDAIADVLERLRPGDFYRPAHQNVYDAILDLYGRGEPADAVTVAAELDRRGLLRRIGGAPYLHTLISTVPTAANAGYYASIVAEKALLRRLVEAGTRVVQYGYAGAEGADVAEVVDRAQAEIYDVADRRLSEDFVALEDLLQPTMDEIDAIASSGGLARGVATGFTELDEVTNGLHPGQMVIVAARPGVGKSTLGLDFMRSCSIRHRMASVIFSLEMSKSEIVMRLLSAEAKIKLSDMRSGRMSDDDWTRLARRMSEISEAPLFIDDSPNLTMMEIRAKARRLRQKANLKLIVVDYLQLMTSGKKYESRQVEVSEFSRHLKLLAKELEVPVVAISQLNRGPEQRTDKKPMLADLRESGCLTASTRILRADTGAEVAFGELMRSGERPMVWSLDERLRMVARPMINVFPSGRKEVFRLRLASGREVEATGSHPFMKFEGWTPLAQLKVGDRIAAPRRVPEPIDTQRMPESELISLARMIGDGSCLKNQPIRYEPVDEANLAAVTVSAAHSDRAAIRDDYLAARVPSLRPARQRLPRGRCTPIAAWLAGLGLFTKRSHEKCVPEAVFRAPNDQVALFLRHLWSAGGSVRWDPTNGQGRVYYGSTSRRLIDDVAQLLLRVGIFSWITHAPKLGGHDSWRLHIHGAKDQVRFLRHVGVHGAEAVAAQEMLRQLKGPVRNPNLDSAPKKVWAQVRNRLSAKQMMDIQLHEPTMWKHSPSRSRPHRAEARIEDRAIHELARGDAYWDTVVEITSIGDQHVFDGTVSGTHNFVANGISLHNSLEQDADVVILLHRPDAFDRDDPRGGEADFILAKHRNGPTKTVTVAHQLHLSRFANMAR

[8] = target: Cytochrome P450 2D6 (Homo sapiens, UniProt P10635);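 further: CYP2D6 member of a cytochrome P450 panel assay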
Sequence of Cytochrome P450 2D6 (P10635 whole entry): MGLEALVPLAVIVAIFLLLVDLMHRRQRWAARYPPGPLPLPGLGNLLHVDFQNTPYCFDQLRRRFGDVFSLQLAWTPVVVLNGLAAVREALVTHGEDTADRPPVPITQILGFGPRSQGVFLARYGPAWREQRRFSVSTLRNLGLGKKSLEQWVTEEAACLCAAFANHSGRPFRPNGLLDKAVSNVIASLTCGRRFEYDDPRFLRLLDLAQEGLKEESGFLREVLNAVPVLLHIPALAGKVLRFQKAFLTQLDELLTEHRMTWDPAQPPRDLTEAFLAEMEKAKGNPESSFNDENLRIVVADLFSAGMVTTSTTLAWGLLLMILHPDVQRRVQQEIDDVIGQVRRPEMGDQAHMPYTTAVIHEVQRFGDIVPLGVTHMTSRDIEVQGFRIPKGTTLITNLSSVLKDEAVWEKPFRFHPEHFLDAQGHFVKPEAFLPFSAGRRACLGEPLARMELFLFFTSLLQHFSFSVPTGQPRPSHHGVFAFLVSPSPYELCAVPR

[9] = Luminescence Cell-Based Dose Retest to Confirm Inhibitors of Cancer Stem Cells. [Related pubchem assays (depositor defined):AID2717, AID2721]; format: functional; settings: Homo sapiens
[10] = target: T4, Protein RecA (Mycobacterium tuberculosis, UniProt P9WHJ3); assay: Fluorescence Cell-Free Homogeneous Dose Retest to Identify Inhibitors of RecA-Intein Splicing Activity. [Related pubchem assays (depositor defined):AID2097, AID2223, AID489010, AID492950]; format: functional
T4 sequence (P9WHJ3 whole entry): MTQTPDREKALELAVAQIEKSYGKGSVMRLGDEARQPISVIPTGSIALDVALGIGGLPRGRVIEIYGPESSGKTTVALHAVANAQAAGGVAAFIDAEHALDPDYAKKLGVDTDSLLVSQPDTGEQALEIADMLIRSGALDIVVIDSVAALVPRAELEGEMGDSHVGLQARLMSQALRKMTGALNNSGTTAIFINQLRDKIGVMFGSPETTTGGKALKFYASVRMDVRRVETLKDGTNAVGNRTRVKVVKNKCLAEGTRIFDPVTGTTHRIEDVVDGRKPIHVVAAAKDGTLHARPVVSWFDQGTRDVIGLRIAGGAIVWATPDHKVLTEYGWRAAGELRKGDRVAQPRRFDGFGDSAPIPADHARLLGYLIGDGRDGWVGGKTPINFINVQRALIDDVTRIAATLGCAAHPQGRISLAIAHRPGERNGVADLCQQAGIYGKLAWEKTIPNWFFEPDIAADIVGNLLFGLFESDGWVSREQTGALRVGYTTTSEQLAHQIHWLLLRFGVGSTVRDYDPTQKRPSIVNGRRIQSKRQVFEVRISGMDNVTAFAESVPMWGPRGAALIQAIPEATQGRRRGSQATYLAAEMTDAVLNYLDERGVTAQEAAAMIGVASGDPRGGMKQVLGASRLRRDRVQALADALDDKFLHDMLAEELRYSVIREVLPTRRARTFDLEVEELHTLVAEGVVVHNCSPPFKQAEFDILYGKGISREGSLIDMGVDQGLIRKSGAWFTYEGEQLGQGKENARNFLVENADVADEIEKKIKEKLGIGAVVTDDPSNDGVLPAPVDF

[11] = target: T5, Kappa-type opioid receptor (Homo sapiens, UniProt P41145); assay: SAR analysis of small molecule antagonists of the kappa opioid receptor via a luminescent beta-arrestin assay - Set 3. [Related pubchem assays (depositor defined):AID1777, AID1778, AID1785, AID1786, AID1966, AID2133, AID2136, AID2285, AID2495]; format: functional
T5 sequence (P41145 whole entry): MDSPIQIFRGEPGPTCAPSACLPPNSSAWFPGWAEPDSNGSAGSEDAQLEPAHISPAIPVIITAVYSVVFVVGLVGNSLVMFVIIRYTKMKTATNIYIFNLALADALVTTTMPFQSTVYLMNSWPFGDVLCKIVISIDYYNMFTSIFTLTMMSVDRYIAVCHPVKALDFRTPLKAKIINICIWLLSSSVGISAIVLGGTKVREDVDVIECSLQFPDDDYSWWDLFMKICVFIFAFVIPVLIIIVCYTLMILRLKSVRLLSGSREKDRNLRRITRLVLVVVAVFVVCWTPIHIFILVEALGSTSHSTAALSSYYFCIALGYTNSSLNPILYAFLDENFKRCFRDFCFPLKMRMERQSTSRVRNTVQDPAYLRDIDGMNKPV

[12] = target: Delta-type opioid receptor (Homo sapiens, UniProt P41143); assay: SAR Analysis of Antagonists of the DOR Receptor using an Image-Based Assay - Set 3. [Related pubchem assays (depositor defined):AID1777, AID1785]; format: functional;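 further: U2OS cells expressing DOR1 and beta-arrestin GFP stimulated with 100 nM SNC80; imaging of GFP-tagged beta-arrestin moving into spots after receptor activation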
Sequence of Delta-type opioid receptor (P41143 whole entry): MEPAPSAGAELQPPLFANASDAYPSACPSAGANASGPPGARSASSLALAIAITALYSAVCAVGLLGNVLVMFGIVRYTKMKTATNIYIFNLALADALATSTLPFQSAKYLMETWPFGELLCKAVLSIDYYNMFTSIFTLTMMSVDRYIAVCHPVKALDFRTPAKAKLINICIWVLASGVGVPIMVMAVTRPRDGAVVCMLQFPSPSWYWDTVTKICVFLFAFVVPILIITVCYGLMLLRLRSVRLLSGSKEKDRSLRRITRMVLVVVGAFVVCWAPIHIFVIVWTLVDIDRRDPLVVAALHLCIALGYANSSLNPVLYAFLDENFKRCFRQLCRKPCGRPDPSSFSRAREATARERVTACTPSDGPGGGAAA

[13] = target: T5, Kappa-type opioid receptor; assay: SAR analysis of Antagonists of the Kappa Opioid Receptor (KOR) using an Image-Based Assay - Set 3. [Related pubchem assays (depositor defined):AID1777, AID1785]; format: functional
[14] = target: Mu-type opioid receptor (Homo sapiens, UniProt P35372); assay: SAR Analysis of Antagonists of the MOR Receptor using an Image-Based Assay - Set 3. [Related pubchem assays (depositor defined):AID1777, AID1785, AID1786, AID1966, AID2133, AID2136, AID2284, AID2285, AID2420]; format: functional
Sequence of Mu-type opioid receptor (P35372 whole entry): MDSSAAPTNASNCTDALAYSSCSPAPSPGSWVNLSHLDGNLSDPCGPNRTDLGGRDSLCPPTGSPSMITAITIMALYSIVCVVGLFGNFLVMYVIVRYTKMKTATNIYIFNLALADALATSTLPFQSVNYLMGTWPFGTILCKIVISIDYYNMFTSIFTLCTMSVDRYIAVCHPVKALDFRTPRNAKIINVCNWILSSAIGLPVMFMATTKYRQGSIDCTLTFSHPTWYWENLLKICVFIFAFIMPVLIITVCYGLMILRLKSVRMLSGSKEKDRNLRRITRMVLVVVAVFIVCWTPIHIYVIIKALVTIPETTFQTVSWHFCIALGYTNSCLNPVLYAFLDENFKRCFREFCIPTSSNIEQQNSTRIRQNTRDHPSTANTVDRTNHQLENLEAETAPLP
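Wherever CC50 is given: cells exposed to compound for 72 hours before luminescence readout.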

For COc1cc(OC)cc(C(=O)NC(=S)NNC(=O)c2cnccn2)c1, the EC50 [1] was 11.5 µM (active), the EC50 [2] was > 80 µM (inactive) and the EC50 [3] was > 120 µM (not active). For the same compound, the EC50 [4] was 10.2 µM (active) and the EC50 [5] was 11.5 µM (active).

In the case of CC(C)CCn1c(N)c(C(=O)NCc2cccs2)c2nc3ccccc3nc21, the CC50 [6] is reported as > 40 µM (active), the AC50 [7] is reported as 4.01 µM (active) and the AC50 [8] is reported as 8.91 µM (inconclusive). The AC50 [9] was 3.46 µM (active) and the EC50 [10] was 3.04 µM (active).

With CCc1ccc(S(=O)(=O)NCc2ccc(C(=O)NCCN(Cc3ccccc3)C(C)CC)cc2)cc1 (centres undefined) the IC50 [11] was 1.42 µM (active), the IC50 [12] was > 32 µM (inactive) and the IC50 [13] was 0.47 µM (active). The IC50 [14] was > 32 µM (inactive).
